Values of other authors, collected in patent US9267111B2, “Methods of treating female subjects in need of in vitro fertilization” (The General Hospital Corporation, priority 2004, dated 2016).

System: germ line stem cells and spermatogonia in irradiated testicular tissue
Conditions: versus untreated tissues

For `CCCCCCCCCCCCC/C=C/[C@@H](O)[C@@H](N)COP(=O)(O)O` [S1P, Sphingosine-1-phosphate], the “numbers of primary spermatocytes and spermatogonia” value is given as “higher than untreated tissues”.
